Test results reported in patent US11311625B2, “Peptide-based multiple-drug delivery vehicle” (priority 2015, dated 2022).
Like-named read-outs stand apart in the source and are kept apart here. One block for each molecule: values may come before it.

How the values were obtained:
[1] = Chemo-stability and drug release of conjugates 1a-e in buffers at pH 2, 5 and 7.4 (LC-MS); format: physicochemical; conditions: for half-life at 0.4 mg/ml: buffer
Procedure: Incubation procedure: Aqueous stability was determined at pH 2.0 (phosphate buffer), 5.0 (citrate buffer) and 7.4 (PBS buffer). 100 μl of the stock solutions were diluted to 2.5 ml with the desired buffer and then incubated at 37° C. During the incubation period (up to 200 hrs.), aliquots were removed at different time intervals, filtered and analyzed by LC-MS.
Chemo-stability. The chemo-stability tests of the conjugates were performed at three different pH values; a physiological pH of 7.4, the slightly acidic pH 5, mimicking the microenvironment in tumors, and the more acidic pH 2.
FIGS. 11A-11J present the results of the chemo-stability and drug release profiles assays, conducted for conjugates 1a-e at pH 2, 5 and 7.4. Degradation of 1a (FIG. 11A), 1b (FIG. 11C), 1c (FIG. 11E), 1d (FIG. 11G), 1e FIG. 11 (FIG. 11I), and the release of the corresponding drugs: CLB (FIG. 11B), CPT (FIG. 11D), AM (FIG. 11F), ABT-751 (FIG. 11H), and COMB (FIG. 11J). Stock solutions were prepared by dissolving 5 mg of the measured conjugate in 0.5 ml DMSO. 100 μl of the stock solution were diluted to 2.5 ml with the relevant buffer and then incubated at 37° C. Along the incubation period, aliquots were taken at the desired time points and analyzed by LC-MS.

[2] = Bio-stability and drug release of conjugates 1a-e in murine liver homogenate (LH); format: in vitro ADME, mouse
Procedure: (§1) Preparation of liver homogenate: Mice were sacrificed by CO2 inhalation euthanasia. The livers were removed, minced, washed three times in cold PBS buffer and homogenized in Tris-HCl buffer, pH 7.4 (wt/3 vol.) by dozen strokes in a Potter-Elvehjem glass tissue grinder. The tissue homogenate was centrifuged at 4° C., 14000 rpm, 20 min. The supernatant was carefully collected (liver homogenate) and used immediately or else stored in liquid nitrogen.
Incubation procedure: Incubations were conducted in a 37° C. incubator with 2 ml homogenate (equivalent to 6 mg total protein of mouse liver homogenate) per incubation tube. The samples were prepared by adding 50 μl of stock solution to the homogenate (homogenate mixture) at the beginning of the incubation period. Aliquots of the homogenate mixture were removed after 10, 30, 60, 90, 120 and 180 min and then immediately quenched with 2.5 volumes of ethanol. The samples were centrifuged at 14000 rpm for 15 min. Supernatants were collected, filtered and analyzed by LC-MS.
FIGS. 12A-12E present the results of the bio-stability and drug release profiles assays conducted for conjugates 1a-e in LH. […] Stock solutions were prepared by dissolving 5 mg of the measured conjugate in 0.5 ml DMSO. 50 μl of the stock solution were diluted with 2 ml of fresh mouse liver homogenate and then the mixture was incubated at 37° C. Aliquots were collected at 10, 30, 60, 90 and 120 min, mixed with 2.5 volumes of ethanol and centrifuged (14,000 rpm, 15 min). The supernatants were collected, filtered and analyzed by LC-MS

[3] = tested on: H1299 human non-small cell lung carcinoma cells; experiment: XTT growth inhibition assay, H1299; format: cell-based; conditions: 10 μM, incubation of 72 h
Procedure: (§2) The cytotoxicity of the peptide-drug conjugates was determined by measuring the mitochondrial enzyme activity, using a commercial XTT assay kit. All samples contained DMSO at final concentration <0.05%. Cells were cultured in micro wells at 2-4×10^4 cells/ml and incubated for 24 h or 72 h. After the first incubation period the cultures were washed and then given fresh medium containing different concentrations of the tested substances. At the end of the second incubation, XTT reagent was added and the cells were re-incubated for additional 2-4 h. During that time the absorbencies in the wells were measured with a TECAN Infinite M200 plate reader at both 480 and 680 nm. The difference between these measurements was used for calculating the % Growth Inhibition (GI) in test wells compared to two controls: cells that were exposed to the medium and solvent, and those that were exposed to a solvent-free medium. All the tests were done in quadruplicates. Each experiment was conducted twice.
(§3) In order to compare the cytotoxic effects of the conjugates relative to the free drugs, the in vitro cytotoxic effect of the drug bioconjugates 1a-e was determined on SSTR2 overexpressed HCT 116 human colorectal carcinoma, H1299 human non-small cell lung carcinoma and TRAMP C2 human prostate cancer cell lines. The SSTR2 low-expressed HEK-293 (Human Embryonic Kidney 293) cell line was used as a negative control. The study was elaborated over a concentration range of 1-10 μM.
FIGS. 13A-13D present the results of the XTT growth inhibition assay conducted for conjugates 1a-e. […] After the treatment, growth inhibition was measured using the XTT assay: The culture medium was replaced by a new one, and then the XTT reagent was added. The wells were incubated for 2-4 hrs. after which the optical density (OD) was measured at 480 and 680 nm. Percentage of growth inhibition for each compound was calculated by comparison of the treated culture versus a control culture (free of any compound). The result shown for each concentration point represents the mean±standard error calculated from two different experiments. […]

[4] = tested on: HCT 116, H1299, TRAMP C2 and HEK cell lines; experiment: XTT growth inhibition assay, statements over all tested cell lines; format: cell-based, human; conditions: for IC50 values: tested cell lines including HEK; for cytotoxicity throughout the study: 1-10 μM, 24 and 72 h
Procedure: as §2, §3
FIGS. 13A-13D present the results of the XTT growth inhibition assay conducted for conjugates 1a-e. Growth inhibition effect of drug-conjugates versus free drugs was studied on three cell lines with an over-expression of SSTR2 (FIG. 13A. HCT 116; FIG. 13B. H1299; FIG. 13C. TRAMP C2) against the SSTR2 low expression cell line (FIG. 13D) HEK as negative control. All the cell lines were seeded and allowed to adhere in the wells, after which they were treated with the different compounds in increasing concentrations for 24 and 72 hr. After the treatment, growth inhibition was measured using the XTT assay: The culture medium was replaced by a new one, and then the XTT reagent was added. The wells were incubated for 2-4 hrs. after which the optical density (OD) was measured at 480 and 680 nm. Percentage of growth inhibition for each compound was calculated by comparison of the treated culture versus a control culture (free of any compound). The result shown for each concentration point represents the mean±standard error calculated from two different experiments. In each experiment the compounds were tested in quadruplicates.

[5] = Chemo-stability and drug release of 9a and CLB in buffers at pH 2, 5 and 7.4 (LC-MS); format: physicochemical
Procedure: Stock solutions chemo-stability studies were prepared by dissolving 5 mg of the tested compound in 5000 μl of DMSO.
Incubation procedure: Aqueous stability was determined at pH 2, 5 and 7.4. Aliquots (100 μl) of stock solution were diluted to a total of 2.5 mL with the desired buffer and then incubated at 37° C. During the incubation period (up to 160 h) 250 μL portions were drawn at different time intervals, filtered and analyzed by LC-MS.
Peptidyl delivery systems loaded with anticancer drugs are expected to reach their site of action with minimal degradation. The PDS should be stable enough to be absorbed by cancer cells and only then deliver its toxic cargo. Chemo-stability and bio-stability studies may give us a background check for the endurance of our compact peptidyl DDS under the different conditions it is expected to encounter in a potential animal test. To that end, samples of 9a were incubated at pH 2, mimicking stomach conditions, at pH 5 mimicking the microenvironment in tumors, and at physiological pH 7.4, all at 37° C. Aliquots from the stock solutions were extracted at different time intervals and analyzed by LC-MS following the decrease in concentration of 9a (i.e., chemical degradation) and the formation of the dihydroxy derivative 11. In addition, the direct release of the different drugs was also followed based on the increase in the concentration of CLB, AZA and CAMP over time. In this analysis samples of 9a, 11, CLB, AZA and CAMP were used as references. Overall, the HPLC trace presents a very complex mixture of metabolites which could not be exhaustively characterized. Scheme 9 below presented the molecular structure 11.

[6] = Bio-stability of 9a in murine liver homogenate (LH); format: in vitro ADME, mouse
Procedure: as §1, with “the LH and assay:” for “liver homogenate:”, “Tris-HCl,” for “Tris-HCl buffer,”, “7.4 buffer” for “7.4”, “(LH)” for “(liver homogenate)”, “nitrogen. The concentration of protein was measured using the BCA protein assay with bovine serum albumin as a standard.” for “nitrogen.”
Assay incubation procedure: Incubations were conducted in an incubator oven set at 37° C. Each incubation tube contained 2 mL homogenate samples (equivalent to 6 mg total protein of mouse LH). The samples were prepared by adding 50 μL of stock solution to the LH at the beginning of the incubation period. Aliquots (100 μL) of the LH mixture were removed after 10, 30, 60, 90, 120, and 180 min. immediately quenched with 2.5 volumes of ethanol, and centrifuged at 14000 rpm for 15 min. The supernatants were collected, filtered and analyzed by LC-MS.
In order to get a biologically relevant picture of the release sequence of the different drugs, the bio-stability of 9a in murine liver homogenate (LH) was studied. Examination of the degradation rate of 9a, accompanied by cleavage of free drugs, was carried out following the LC-MS trace at different time intervals using premade authentic samples as reference signals.

[7] = tested on: TRAMP C2 prostate cancer cell lines; experiment: XTT growth inhibition assay, TRAMP C2; format: cell-based, human; conditions: compared with corresponding free drugs
Procedure: as §2, with “The difference between these measurements was used for calculating the % Growth Inhibition (GI) in test wells compared to two controls: cells that were exposed to the medium and solvent, and those that were exposed to a solvent-free medium. All the tests were done in quadruplicates. Each experiment was conducted twice.” left out
In order to compare the cytotoxic effects of the conjugates relative to the free drugs, the in vitro cytotoxic effect of the drug bioconjugates 1a-e was determined on SSTR2 overexpressed HCT 116 human colorectal carcinoma, H1299 human non-small cell lung carcinoma and TRAMP C2 human prostate cancer cell lines. […]
FIGS. 13A-13D present the results of the XTT growth inhibition assay conducted for conjugates 1a-e. […] After the treatment, growth inhibition was measured using the XTT assay: The culture medium was replaced by a new one, and then the XTT reagent was added. The wells were incubated for 2-4 hrs. after which the optical density (OD) was measured at 480 and 680 nm. […]

[8] = mouse, tissue homogenate, pH 7.4, 37° C., read-out: degradation t1/2 in liver homogenate

degradation of free drug ([1]; buffers, 37° C.): certain degradation behavior
stability of free drug in liver homogenate ([2]; measured time period): rapid degradation
Structure (SMILES): COc1ccc(S(=O)(=O)Nc2cccnc2Nc2ccc(O)cc2)cc1 [ABT-751, reference compound]
cytotoxic effect on H1299 [3]: considerable cytotoxic effect
IC50 values [4]: low μM range

Structure (SMILES): O=C(O)CCCc1ccc(N(CCCl)CCCl)cc1 [CLB, Chlorambucil, reference compound]
cytotoxicity throughout the study [4]: poorly active
degradation of pure CLB ([5]; all tested pH values (2, 5, 7.4), 37° C.): considerable degradation
relative stability of CLB ([5]; pH 5): least stable

Structure (SMILES): COc1ccc(/C=C\c2cc(OC)c(OC)c(OC)c2)cc1O [COMB, combretastatin A4]
IC50 values [4]: low μM range

Structure (SMILES): CN(C)CCN1C(=O)c2cccc3cc(N)cc(c23)C1=O [amonafide, reference compound]
stability of free drug ([1]; acidic pH 2): relatively low stability
cytotoxicity throughout the study [4]: poorly active

Structure (SMILES): CC[C@]1(OC(=O)NCCCC[C@H](NC(=O)CCCc2ccc(N(CCO)CCO)cc2)C(=O)NCCCC[C@H](NC(=O)Oc2c(OC)cc([C@H]3c4[nH]c5ccccc5c4CC4COC(=O)N43)cc2OC)C(=O)O)C(=O)OCc2c1cc1n(c2=O)Cc2cc3ccccc3nc2-1 (some centres unmarked) [compound 11]
time after which no traces of 11 are left ([5]; all three pH cases): 40 h
time at which formation of 11 from 9a reaches its maximum ([5]; all three pH cases): 5 h

Structure (SMILES): COc1cc([C@@H]2c3[nH]c4ccccc4c3C[C@H]3COC(=O)N32)cc(OC)c1OC(=O)N[C@@H](C)C(=O)O [compound 12]
time the carbamate link remains intact in LH [6]: at least 120 min

Structure (SMILES): C[C@@H](O)[C@@H]1NC(=O)[C@H](CCCCN)NC(=O)[C@@H](Cc2c[nH]c3ccccc23)NC(=O)[C@H](Cc2c[nH]c3ccccc23)NC(=O)[C@H](Cc2ccccc2)NC(=O)[C@@H](NC(=O)[C@@H](Cc2ccccc2)NC(=O)CCCNC(=O)CCCc2ccc(N(CCCl)CCCl)cc2)CSSCCN(CC(N)=O)C(=O)[C@H](Cc2ccccc2)NC1=O [conjugate 1a]
degradation of conjugate ([1]; all tested pH values (pH 2, 5, 7.4), 37° C.): considerable degradation
CLB release from conjugate ([1]; pH 2, 5 and 7.4, 37° C.): observed only at acidic pH 2
half-life ([1]; pH 2, 37° C., read-out: CLB release t1/2 (converted)): 51 h
half-life ([2]; mouse, tissue homogenate, 37° C., read-out: degradation t1/2 in liver homogenate): 0.95 h
cytotoxicity throughout the study [4]: poorly active

Structure (SMILES): CC[C@@]1(OC(=O)NCCCC(=O)N[C@H](Cc2ccccc2)C(=O)N[C@H]2CSSCCN(CC(N)=O)C(=O)[C@H](Cc3ccccc3)NC(=O)[C@H]([C@@H](C)O)NC(=O)[C@H](CCCCN)NC(=O)[C@@H](Cc3c[nH]c4ccccc34)NC(=O)[C@H](Cc3c[nH]c4ccccc34)NC(=O)[C@H](Cc3ccccc3)NC2=O)C(=O)OCc2c1cc1n(c2=O)Cc2cc3ccccc3nc2-1 [conjugate 1b]
half-life [2, 8]: 0.617 h
cytotoxic effect on H1299 [3]: most active
cytotoxicity throughout the study [4]: targeted but cell selective cytotoxicity

Structure (SMILES): C[C@@H](O)[C@@H]1NC(=O)[C@H](CCCCN)NC(=O)[C@@H](Cc2c[nH]c3ccccc23)NC(=O)[C@H](Cc2c[nH]c3ccccc23)NC(=O)[C@H](Cc2ccccc2)NC(=O)[C@@H](NC(=O)[C@@H](Cc2ccccc2)NC(=O)CCCNC(=O)CCCC(=O)Nc2cc3c4c(cccc4c2)C(=O)N(CCN(C)C)C3=O)CSSCCN(CC(N)=O)C(=O)[C@H](Cc2ccccc2)NC1=O [conjugate 1c]
half-life at 0.4 mg/ml ([1]; pH 2): 48 h
half-life at 0.4 mg/ml ([1]; pH 5): 28 h
half-life at 0.4 mg/ml ([1]; pH 7.4): 103 h

Structure (SMILES): COc1ccc(/C=C\c2cc(OC)c(OC)c(OC)c2)cc1OC(=O)NCCCC(=O)N[C@H](Cc1ccccc1)C(=O)N[C@H]1CSSCCN(CC(N)=O)C(=O)[C@H](Cc2ccccc2)NC(=O)[C@H]([C@@H](C)O)NC(=O)[C@H](CCCCN)NC(=O)[C@@H](Cc2c[nH]c3ccccc23)NC(=O)[C@H](Cc2c[nH]c3ccccc23)NC(=O)[C@H](Cc2ccccc2)NC1=O [conjugate 1e]
degradation of conjugate in acidic media ([1]; acidic media, especially pH 2): degrades rapidly
half-life at 0.4 mg/ml ([1]; pH 2, 37° C., read-out: degradation t1/2): 0.0667 h
half-life at 0.244 mg/ml [2, 8]: 0.433 h
cytotoxic effect on TRAMP C2 [7]: most potent targeted therapeutic effect
cytotoxicity throughout the study [4]: targeted but cell selective cytotoxicity
